According to ChEMBL document CHEMBL5705887, “Distinct concentration-dependent effects of the polo-like kinase 1-specific inhibitor GSK461364A, including differential effect on apoptosis” (Cancer Res, 2009):
Activity calls are given as the source filed them. The rule behind the calls is not given here.

Assays:
COLO 205 [1] = assay: Antiproliferative activity against human COLO 205 cells assessed as of viable cell signal at minimum maximum cell growth incubated for 72 hrs by celltiter-glo assay relative to control; type: functional
MDA-MB-468 = assay: Antiproliferative activity against human MDA-MB-468 cells assessed as viable cell signal at maximum growth inhibition incubated for 72 hrs by celltiter-glo assay relative to control; type: functional
THP-1 = assay: Antiproliferative activity against human THP-1 cells assessed as of viable cell signal at minimum maximum cell growth incubated for 72 hrs by celltiter-glo assay relative to control; type: functional
[2] = biological target: Ribosomal protein S6 kinase alpha-1 (Rattus norvegicus) (UniProt Q63531); assay: Inhibition of recombinant rat RSK1 at 10 uM relative to control
Chain of Ribosomal protein S6 kinase alpha-1 (Rattus norvegicus) (Q63531 whole entry): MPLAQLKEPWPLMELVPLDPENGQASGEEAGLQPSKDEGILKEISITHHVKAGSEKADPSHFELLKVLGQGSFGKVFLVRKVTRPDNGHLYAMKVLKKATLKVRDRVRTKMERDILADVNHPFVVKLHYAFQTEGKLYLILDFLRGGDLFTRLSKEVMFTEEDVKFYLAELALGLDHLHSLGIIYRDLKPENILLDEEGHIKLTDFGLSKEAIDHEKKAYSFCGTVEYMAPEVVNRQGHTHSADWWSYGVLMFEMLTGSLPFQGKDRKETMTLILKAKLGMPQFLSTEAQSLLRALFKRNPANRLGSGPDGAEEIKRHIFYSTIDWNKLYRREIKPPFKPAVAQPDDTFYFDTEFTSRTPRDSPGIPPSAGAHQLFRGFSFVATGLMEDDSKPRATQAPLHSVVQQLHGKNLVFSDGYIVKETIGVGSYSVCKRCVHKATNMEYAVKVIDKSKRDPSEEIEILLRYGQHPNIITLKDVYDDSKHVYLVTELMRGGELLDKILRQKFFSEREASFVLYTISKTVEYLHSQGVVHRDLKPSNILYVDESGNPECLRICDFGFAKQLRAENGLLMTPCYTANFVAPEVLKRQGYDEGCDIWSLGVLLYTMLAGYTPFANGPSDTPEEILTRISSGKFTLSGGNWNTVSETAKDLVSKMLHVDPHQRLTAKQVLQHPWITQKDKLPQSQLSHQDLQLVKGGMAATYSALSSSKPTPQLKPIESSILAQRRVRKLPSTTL

[3] = biological target: Cyclin-dependent kinase 1/cyclin B1 (Homo sapiens) (UniProt P06493+P14635); assay: Inhibition of C-terminal his6-tagged recombinant human CDK1/full length N-terminal GST-tagged recombinant human cyclin B expressed in baculovirus Sf21 insect cells at 10 uM relative to control
Chain of Cyclin-dependent kinase 1/cyclin B1 (Homo sapiens) (P06493 whole entry, looked up): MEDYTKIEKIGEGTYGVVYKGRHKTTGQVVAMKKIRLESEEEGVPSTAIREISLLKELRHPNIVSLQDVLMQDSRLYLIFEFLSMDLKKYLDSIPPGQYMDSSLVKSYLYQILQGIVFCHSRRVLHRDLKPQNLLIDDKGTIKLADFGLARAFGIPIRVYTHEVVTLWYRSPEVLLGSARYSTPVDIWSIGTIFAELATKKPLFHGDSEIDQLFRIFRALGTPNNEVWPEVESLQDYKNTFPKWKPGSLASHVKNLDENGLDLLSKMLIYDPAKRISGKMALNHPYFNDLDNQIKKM
Chain of Cyclin-dependent kinase 1/cyclin B1 (Homo sapiens) (P14635 whole entry, looked up): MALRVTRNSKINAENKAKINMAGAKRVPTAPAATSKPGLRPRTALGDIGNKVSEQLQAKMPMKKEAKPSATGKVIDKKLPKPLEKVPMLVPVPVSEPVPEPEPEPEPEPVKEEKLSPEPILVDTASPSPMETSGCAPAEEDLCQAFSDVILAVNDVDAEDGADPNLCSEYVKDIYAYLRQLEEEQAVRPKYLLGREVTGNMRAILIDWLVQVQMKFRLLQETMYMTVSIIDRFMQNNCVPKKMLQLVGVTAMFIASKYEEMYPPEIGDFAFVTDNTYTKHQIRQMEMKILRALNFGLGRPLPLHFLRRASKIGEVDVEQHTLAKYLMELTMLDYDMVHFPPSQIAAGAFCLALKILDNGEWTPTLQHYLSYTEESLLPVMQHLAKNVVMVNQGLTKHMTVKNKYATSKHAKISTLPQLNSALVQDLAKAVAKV

[4] = biological target: Calcium/calmodulin-dependent protein kinase type II subunit beta (Homo sapiens) (UniProt Q13554); assay: Inhibition of recombinant human CaMKII-beta at 10 uM relative to control
Chain of Calcium/calmodulin-dependent protein kinase type II subunit beta (Homo sapiens) (Q13554 whole entry): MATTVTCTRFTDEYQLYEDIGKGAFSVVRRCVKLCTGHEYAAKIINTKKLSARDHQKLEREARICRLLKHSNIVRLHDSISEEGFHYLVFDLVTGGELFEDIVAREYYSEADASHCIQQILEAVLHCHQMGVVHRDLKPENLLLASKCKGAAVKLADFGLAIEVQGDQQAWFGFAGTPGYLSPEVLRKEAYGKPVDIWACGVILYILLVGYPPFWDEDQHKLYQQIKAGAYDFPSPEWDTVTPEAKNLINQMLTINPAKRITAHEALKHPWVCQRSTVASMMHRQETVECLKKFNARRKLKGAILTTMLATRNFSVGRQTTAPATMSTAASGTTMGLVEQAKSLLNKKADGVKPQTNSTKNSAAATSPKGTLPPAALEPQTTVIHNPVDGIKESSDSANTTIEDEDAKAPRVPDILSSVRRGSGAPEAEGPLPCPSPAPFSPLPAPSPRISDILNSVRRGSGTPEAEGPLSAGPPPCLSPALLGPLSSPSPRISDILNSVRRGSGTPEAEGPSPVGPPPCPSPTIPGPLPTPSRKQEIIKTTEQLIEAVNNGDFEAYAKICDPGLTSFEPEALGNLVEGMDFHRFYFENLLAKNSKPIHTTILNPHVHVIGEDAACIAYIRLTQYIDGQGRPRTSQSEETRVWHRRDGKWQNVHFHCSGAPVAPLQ

K562 = assay: Antiproliferative activity against human K562 cells assessed as of viable cell signal at minimum maximum cell growth incubated for 72 hrs by celltiter-glo assay relative to control; type: functional
DU-145 = assay: Antiproliferative activity against human DU-145 cells assessed as of viable cell signal at minimum maximum cell growth incubated for 72 hrs by celltiter-glo assay relative to control; type: functional
[5] = Antiproliferative activity against human PL45 cells assessed as growth inhibition incubated for 72 hrs by celltiter-glo assay; type: functional
HT-1080 = assay: Antiproliferative activity against human HT-1080 cells assessed as of viable cell signal at minimum maximum cell growth incubated for 72 hrs by celltiter-glo assay relative to control; type: functional
RPMI-8226 = assay: Antiproliferative activity against human RPMI-8226 cells assessed as viable cell signal at maximum growth inhibition incubated for 72 hrs by celltiter-glo assay relative to control; type: functional
SJSA-1 = assay: Antiproliferative activity against human SJSA-1 cells assessed as of viable cell signal at minimum maximum cell growth incubated for 72 hrs by celltiter-glo assay relative to control; type: functional
OVCAR-8 = assay: Antiproliferative activity against human OVCAR-8 cells assessed as viable cell signal at maximum growth inhibition incubated for 72 hrs by celltiter-glo assay relative to control; type: functional
COLO 205 [6] = assay: Antiproliferative activity against human COLO 205 cells assessed as viable cell signal at maximum growth inhibition incubated for 72 hrs by celltiter-glo assay relative to control; type: functional
A549 = assay: Antiproliferative activity against human A549 cells assessed as growth inhibition incubated for 72 hrs by celltiter-glo assay; type: functional
ZR-75-1 = assay: Antiproliferative activity against human ZR-75-1 cells assessed as growth inhibition at > 250 nmol/L incubated for 72 hrs by celltiter-glo assay; type: functional, cell-based
[7] = biological target: Serine/threonine-protein kinase WNK3 (Homo sapiens) (UniProt Q9BYP7); assay: Inhibition of N-terminal his6-tagged recombinant human WNK3 (1 to 434 residues) expressed in baculovirus Sf21 insect cells at 10 uM relative to control
Chain of Serine/threonine-protein kinase WNK3 (Homo sapiens) (Q9BYP7 whole entry, the tested form may be a part): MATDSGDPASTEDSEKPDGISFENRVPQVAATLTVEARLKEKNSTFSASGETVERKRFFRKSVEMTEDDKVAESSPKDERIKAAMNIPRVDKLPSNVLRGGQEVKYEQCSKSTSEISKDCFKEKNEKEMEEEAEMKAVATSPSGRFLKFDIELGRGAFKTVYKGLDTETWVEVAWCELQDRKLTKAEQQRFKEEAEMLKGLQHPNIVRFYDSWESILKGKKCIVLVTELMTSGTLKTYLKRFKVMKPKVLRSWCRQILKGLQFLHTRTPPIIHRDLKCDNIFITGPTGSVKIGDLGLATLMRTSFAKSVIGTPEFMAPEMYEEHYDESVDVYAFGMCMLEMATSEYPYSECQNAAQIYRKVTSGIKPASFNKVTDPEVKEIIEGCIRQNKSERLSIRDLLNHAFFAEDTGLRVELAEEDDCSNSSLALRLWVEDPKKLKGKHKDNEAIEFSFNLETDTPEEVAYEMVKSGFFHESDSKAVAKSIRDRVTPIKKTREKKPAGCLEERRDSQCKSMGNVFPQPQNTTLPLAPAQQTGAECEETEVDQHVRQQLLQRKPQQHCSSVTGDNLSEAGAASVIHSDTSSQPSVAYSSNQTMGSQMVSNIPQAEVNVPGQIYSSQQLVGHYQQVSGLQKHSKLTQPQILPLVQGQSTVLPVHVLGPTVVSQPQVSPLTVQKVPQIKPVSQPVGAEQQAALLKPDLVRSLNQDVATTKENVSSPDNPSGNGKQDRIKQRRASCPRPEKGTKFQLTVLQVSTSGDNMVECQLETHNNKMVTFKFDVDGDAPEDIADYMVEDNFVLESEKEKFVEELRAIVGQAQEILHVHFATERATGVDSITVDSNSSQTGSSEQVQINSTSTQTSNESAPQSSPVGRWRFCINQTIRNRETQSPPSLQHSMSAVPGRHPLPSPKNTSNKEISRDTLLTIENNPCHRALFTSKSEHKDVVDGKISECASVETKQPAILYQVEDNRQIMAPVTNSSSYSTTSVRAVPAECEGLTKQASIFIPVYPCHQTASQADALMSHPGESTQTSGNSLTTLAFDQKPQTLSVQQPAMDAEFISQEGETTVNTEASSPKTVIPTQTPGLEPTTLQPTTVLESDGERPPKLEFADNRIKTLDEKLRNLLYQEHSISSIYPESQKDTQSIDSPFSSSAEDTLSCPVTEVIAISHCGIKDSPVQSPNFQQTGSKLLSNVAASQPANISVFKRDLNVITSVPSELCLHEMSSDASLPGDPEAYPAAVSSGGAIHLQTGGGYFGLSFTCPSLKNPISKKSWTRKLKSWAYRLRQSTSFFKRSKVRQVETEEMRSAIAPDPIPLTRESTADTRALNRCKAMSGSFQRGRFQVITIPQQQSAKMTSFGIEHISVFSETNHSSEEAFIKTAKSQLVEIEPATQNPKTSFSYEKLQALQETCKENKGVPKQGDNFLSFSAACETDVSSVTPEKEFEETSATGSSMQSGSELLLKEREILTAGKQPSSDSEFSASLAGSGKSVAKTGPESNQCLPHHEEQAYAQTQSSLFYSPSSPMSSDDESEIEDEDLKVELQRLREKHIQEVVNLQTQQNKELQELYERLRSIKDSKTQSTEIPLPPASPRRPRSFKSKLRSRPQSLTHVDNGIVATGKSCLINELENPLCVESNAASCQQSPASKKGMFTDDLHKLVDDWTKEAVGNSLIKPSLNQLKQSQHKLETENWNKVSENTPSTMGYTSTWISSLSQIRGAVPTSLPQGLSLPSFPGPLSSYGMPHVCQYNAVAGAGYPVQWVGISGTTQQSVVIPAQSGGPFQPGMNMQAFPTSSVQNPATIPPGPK

HeLa = assay: Antiproliferative activity against human HeLa cells assessed as of viable cell signal at minimum maximum cell growth incubated for 72 hrs by celltiter-glo assay relative to control; type: functional
A-427 = assay: Antiproliferative activity against human A-427 cells assessed as of viable cell signal at minimum maximum cell growth incubated for 72 hrs by celltiter-glo assay relative to control; type: functional
COLO 205 [8] = assay: Antitumor activity against human COLO 205 cells xenografted in Nude mouse assessed as increase in pIk1 level at 50 mg/kg, ip measured at 24 hrs by immunohistochemistry analysis; type: functional, organism-based
LNCaP = assay: Antiproliferative activity against human LNCaP cells assessed as growth inhibition incubated for 72 hrs by celltiter-glo assay; type: functional
PANC-1 = assay: Antiproliferative activity against human PANC-1 cells assessed as viable cell signal at maximum growth inhibition incubated for 72 hrs by celltiter-glo assay relative to control; type: functional
U2OS = assay: Antiproliferative activity against human U2OS cells assessed as growth inhibition incubated for 72 hrs by celltiter-glo assay; type: functional
T47D = assay: Antiproliferative activity against human T47D cells assessed as of viable cell signal at minimum maximum cell growth incubated for 72 hrs by celltiter-glo assay relative to control; type: functional
Jurkat = assay: Antiproliferative activity against human Jurkat cells assessed as of viable cell signal at minimum maximum cell growth incubated for 72 hrs by celltiter-glo assay relative to control; type: functional
HN5 = assay: Antiproliferative activity against human HN5 cells assessed as of viable cell signal at minimum maximum cell growth incubated for 72 hrs by celltiter-glo assay relative to control; type: functional
HL-60 = assay: Antiproliferative activity against human HL-60 cells assessed as of viable cell signal at minimum maximum cell growth incubated for 72 hrs by celltiter-glo assay relative to control; type: functional

**Q.** Which Emin (COLO 205 [1]) does the source give for `C[C@@H](Oc1cc(-n2cnc3ccc(CN4CCN(C)CC4)cc32)sc1C(N)=O)c1ccccc1C(F)(F)F` [GSK-461364] here?
**A.** The Emin was 102.6%.

**Q.** And the Emax (MDA-MB-468)?
**A.** Its Emax is 458%.

**Q.** And the Emin (THP-1)?
**A.** The Emin was 60.3%.

**Q.** What about the inhibition [2] of the same compound?
**A.** The inhibition was 87%.

**Q.** And the inhibition [3]?
**A.** The inhibition was 66%.

**Q.** What about the inhibition [4] of the same compound?
**A.** Its inhibition is 56%.

**Q.** And the Emin (K562)?
**A.** The Emin was 91.2%.

**Q.** What about the Emin (DU-145) of the same compound?
**A.** The Emin was 69.1%.

**Q.** And the GI50 [5]?
**A.** Its GI50 is 21.9 nM.

**Q.** What about the Emin (HT-1080) of the same compound?
**A.** The Emin was 62.5%.

**Q.** And the Emax (RPMI-8226)?
**A.** The Emax was 515%.

**Q.** What about the Emin (SJSA-1) of the same compound?
**A.** Its Emin is 123.8%.

**Q.** What about the Emax (OVCAR-8) of the same compound?
**A.** The Emax was 567%.

**Q.** What about the Emax (COLO 205 [6]) of the same compound?
**A.** Its Emax is 616%.

**Q.** What about the GI50 (A549) of the same compound?
**A.** The GI50 was 34 nM.

**Q.** What about the Activity (ZR-75-1) of the same compound?
**A.** Its Activity is “Active”.

**Q.** And the inhibition [7]?
**A.** Its inhibition is 68%.

**Q.** And the Emin (HeLa)?
**A.** The Emin was 32.2%.

**Q.** And the Emin (A-427)?
**A.** Its Emin is 15.4%.

**Q.** What about the Activity (COLO 205 [8]) of the same compound?
**A.** Its Activity is “Active”.

**Q.** And the GI50 (LNCaP)?
**A.** The GI50 was 15.3 nM.

**Q.** And the Emax (PANC-1)?
**A.** Its Emax is 530%.

**Q.** And the GI50 (U2OS)?
**A.** Its GI50 is 41.7 nM.

**Q.** And the Emin (T47D)?
**A.** The Emin was 205%.

**Q.** What about the Emin (Jurkat) of the same compound?
**A.** The Emin was 2.2%.

**Q.** What about the Emin (HN5) of the same compound?
**A.** The Emin was 39.8%.

**Q.** What about the Emin (HL-60) of the same compound?
**A.** The Emin was 15.3%.
